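1) Cells in 96-well plates. 2) Compound, 48 h, 5 concentrations. 3) Linear interpolation between surrounding doses. 4) Unreached endpoint = highest concentration. GI50: concentration for 50% inhibition of growth. Definition used: TGI = concentration required for complete inhibition of growth.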 Where a SMILES comes first, the peptide text is derived from it. [ ]: non-standard residue; d: D form. The star is where a group is joined. ξ: configuration not given here. ξD = NC(CC(=O)O)C(=O)O; Boc = CC(C)(C)OC(=O)*; Aib = CC(C)(N)C(=O)O; OtBu = CC(C)(C)O*
Columns and labels:
Experiment in all cases: NCI anticancer screen, dose series, 48 h
BT-549 breast = test system: BT-549 breast
HCT-116 colon = test system: HCT-116 colon
LOX IMVI melanoma = test system: LOX IMVI melanoma
OVCAR-5 ovarian = test system: OVCAR-5 ovarian
EKVX NSCLC = test system: EKVX NSCLC
UO-31 renal = test system: UO-31 renal
HOP-92 NSCLC = test system: HOP-92 NSCLC
NCI/ADR-RES ovarian = test system: NCI/ADR-RES ovarian
HS 578T breast = test system: HS 578T breast
SW-620 colon = test system: SW-620 colon
SF-268 CNS = test system: SF-268 CNS
COLO 205 colon = test system: COLO 205 colon
RXF 393 renal = test system: RXF 393 renal
OVCAR-4 ovarian = test system: OVCAR-4 ovarian
CAKI-1 renal = test system: CAKI-1 renal
NCI-H460 lung = test system: NCI-H460 lung
MDA-MB-435 = test system: MDA-MB-435
M14 melanoma = test system: M14 melanoma
SF-539 CNS = test system: SF-539 CNS
ACHN renal = test system: ACHN renal
PC-3 prostate = test system: PC-3 prostate
SK-MEL-28 melanoma = test system: SK-MEL-28 melanoma
IGROV1 ovarian = test system: IGROV1 ovarian
A498 renal = test system: A498 renal
OVCAR-8 ovarian = test system: OVCAR-8 ovarian
SNB-75 CNS = test system: SNB-75 CNS
MDA-MB-231 breast = test system: MDA-MB-231 breast
SK-OV-3 ovarian = test system: SK-OV-3 ovarian
TK-10 renal = test system: TK-10 renal
UACC-62 melanoma = test system: UACC-62 melanoma
UACC-257 melanoma = test system: UACC-257 melanoma
HOP-62 NSCLC = test system: HOP-62 NSCLC
A549 NSCLC = test system: A549 NSCLC
NCI-H522 lung = test system: NCI-H522 lung
MCF7 breast = test system: MCF7 breast
DU-145 prostate = test system: DU-145 prostate
HCT-15 colon = test system: HCT-15 colon
NCI-H226 lung = test system: NCI-H226 lung
MOLT-4 leukemia = test system: MOLT-4 leukemia
KM12 colon = test system: KM12 colon
NCI-H23 lung = test system: NCI-H23 lung
T-47D breast = test system: T-47D breast
786-0 renal = test system: 786-0 renal
RPMI-8226 leukemia = test system: RPMI-8226 leukemia
SNB-19 CNS = test system: SNB-19 CNS
MALME-3M melanoma = test system: MALME-3M melanoma
SF-295 CNS = test system: SF-295 CNS
U251 CNS = test system: U251 CNS
HT29 colon = test system: HT29 colon
SK-MEL-2 melanoma = test system: SK-MEL-2 melanoma
SK-MEL-5 melanoma = test system: SK-MEL-5 melanoma
OVCAR-3 ovarian = test system: OVCAR-3 ovarian
K-562 leukemia = test system: K-562 leukemia
CCRF-CEM leukemia = test system: CCRF-CEM leukemia
SN12C renal = test system: SN12C renal
HCC-2998 colon = test system: HCC-2998 colon
HL-60(TB) leukemia = test system: HL-60(TB) leukemia

Work on `COC(=O)C(C)(C)NC(=O)C(C)(C)NC(=O)C(CC(=O)OC(C)(C)C)NC(=O)OC(C)(C)C` (stereo unspecified) (Boc-[ξD](OtBu)-[Aib]-[Aib]-OMe) yielded a TGI (BT-549 breast) of over 100 µM, a TGI (HCT-116 colon) of over 100 µM and a TGI (LOX IMVI melanoma) of over 100 µM. It also gave a TGI (OVCAR-5 ovarian) of over 100 µM, a TGI (EKVX NSCLC) of over 100 µM and a TGI (UO-31 renal) of over 100 µM. For the same molecule, the TGI (HOP-92 NSCLC) was over 100 µM, the TGI (NCI/ADR-RES ovarian) was over 100 µM and the TGI (HS 578T breast) was over 100 µM. It also gave a TGI (SW-620 colon) of over 100 µM, a TGI (SF-268 CNS) of over 100 µM and a TGI (COLO 205 colon) of over 100 µM. For the same molecule, the TGI (RXF 393 renal) was over 100 µM, the TGI (OVCAR-4 ovarian) was over 100 µM and the TGI (CAKI-1 renal) was over 100 µM. It also gave a TGI (NCI-H460 lung) of over 100 µM, a TGI (MDA-MB-435) of over 100 µM and a TGI (M14 melanoma) of over 100 µM. For the same molecule, the TGI (SF-539 CNS) was over 100 µM, the TGI (ACHN renal) was over 100 µM and the TGI (PC-3 prostate) was over 100 µM. The TGI (SK-MEL-28 melanoma) was over 100 µM, the TGI (IGROV1 ovarian) was over 100 µM and the TGI (A498 renal) was over 100 µM. For the same molecule, the TGI (OVCAR-8 ovarian) was over 100 µM, the TGI (SNB-75 CNS) was over 100 µM and the TGI (MDA-MB-231 breast) was over 100 µM. The TGI (SK-OV-3 ovarian) was over 100 µM, the TGI (TK-10 renal) was over 100 µM and the TGI (UACC-62 melanoma) was over 100 µM. The TGI (UACC-257 melanoma) was over 100 µM, the TGI (HOP-62 NSCLC) was over 100 µM and the TGI (A549 NSCLC) was over 100 µM. For the same molecule, the TGI (NCI-H522 lung) was over 100 µM, the TGI (MCF7 breast) was over 100 µM and the TGI (DU-145 prostate) was over 100 µM. For the same molecule, the TGI (HCT-15 colon) was over 100 µM, the TGI (NCI-H226 lung) was over 100 µM and the TGI (MOLT-4 leukemia) was over 100 µM. The TGI (KM12 colon) was over 100 µM, the TGI (NCI-H23 lung) was over 100 µM and the TGI (T-47D breast) was over 100 µM. It also gave a TGI (786-0 renal) of over 100 µM, a TGI (RPMI-8226 leukemia) of over 100 µM and a TGI (SNB-19 CNS) of over 100 µM. The TGI (MALME-3M melanoma) was over 100 µM, the TGI (SF-295 CNS) was over 100 µM and the TGI (U251 CNS) was over 100 µM. It also gave a TGI (HT29 colon) of over 100 µM, a TGI (SK-MEL-2 melanoma) of over 100 µM and a TGI (SK-MEL-5 melanoma) of over 100 µM. The TGI (OVCAR-3 ovarian) was over 100 µM, the TGI (K-562 leukemia) was over 100 µM and the TGI (CCRF-CEM leukemia) was over 100 µM.
`COc1ccc(OC)c(/C=C/C(=O)N/N=C/c2ccccc2)c1` was tested, and the GI50 (BT-549 breast) was 4.05 µM, the TGI (BT-549 breast) was 90.4 µM and the GI50 (HCT-116 colon) was 2.64 µM. For the same molecule, the TGI (HCT-116 colon) was 10.2 µM, the GI50 (LOX IMVI melanoma) was 4.12 µM and the TGI (LOX IMVI melanoma) was over 100 µM. For the same molecule, the GI50 (OVCAR-5 ovarian) was 18 µM, the TGI (OVCAR-5 ovarian) was over 100 µM and the GI50 (EKVX NSCLC) was 1.59 µM. For the same molecule, the TGI (EKVX NSCLC) was 59.5 µM, the GI50 (UO-31 renal) was 5.9 µM and the TGI (UO-31 renal) was 85.5 µM. It also gave a GI50 (SN12C renal) of 4.17 µM, a TGI (SN12C renal) of 39.9 µM and a GI50 (HOP-92 NSCLC) of 1.56 µM. It also gave a TGI (HOP-92 NSCLC) of 13.3 µM, a GI50 (NCI/ADR-RES ovarian) of 1.46 µM and a TGI (NCI/ADR-RES ovarian) of 4.29 µM. The GI50 (HS 578T breast) was 9.07 µM, the TGI (HS 578T breast) was over 100 µM and the GI50 (SW-620 colon) was 1.5 µM. It also gave a TGI (SW-620 colon) of 6.23 µM, a GI50 (SF-268 CNS) of 7.56 µM and a TGI (SF-268 CNS) of over 100 µM. It also gave a GI50 (COLO 205 colon) of 4.8 µM, a TGI (COLO 205 colon) of 35.1 µM and a GI50 (HCC-2998 colon) of 2.35 µM. For the same molecule, the TGI (HCC-2998 colon) was 21 µM, the GI50 (RXF 393 renal) was 3.9 µM and the TGI (RXF 393 renal) was 26.6 µM. The GI50 (OVCAR-4 ovarian) was 14.3 µM, the TGI (OVCAR-4 ovarian) was over 100 µM and the GI50 (CAKI-1 renal) was 0.443 µM. For the same molecule, the TGI (CAKI-1 renal) was 6.66 µM, the GI50 (NCI-H460 lung) was 2.07 µM and the TGI (NCI-H460 lung) was 5.62 µM. For the same molecule, the GI50 (MDA-MB-435) was 0.283 µM, the TGI (MDA-MB-435) was 1.98 µM and the GI50 (M14 melanoma) was 2.16 µM. It also gave a TGI (M14 melanoma) of 6.77 µM, a GI50 (SF-539 CNS) of 4.42 µM and a TGI (SF-539 CNS) of 25.1 µM. The GI50 (ACHN renal) was 9.66 µM, the TGI (ACHN renal) was over 100 µM and the GI50 (PC-3 prostate) was 5.86 µM. For the same molecule, the TGI (PC-3 prostate) was 52.1 µM, the GI50 (SK-MEL-28 melanoma) was 8.89 µM and the TGI (SK-MEL-28 melanoma) was over 100 µM. The GI50 (IGROV1 ovarian) was 1.51 µM, the TGI (IGROV1 ovarian) was over 100 µM and the GI50 (A498 renal) was 12 µM. The TGI (A498 renal) was over 100 µM, the GI50 (HL-60(TB) leukemia) was 2.03 µM and the TGI (HL-60(TB) leukemia) was 13.7 µM. The GI50 (OVCAR-8 ovarian) was 5.44 µM, the TGI (OVCAR-8 ovarian) was 94.6 µM and the GI50 (SNB-75 CNS) was 4.39 µM. It also gave a TGI (SNB-75 CNS) of 37.3 µM, a GI50 (MDA-MB-231 breast) of 7.24 µM and a TGI (MDA-MB-231 breast) of over 100 µM. For the same molecule, the GI50 (SK-OV-3 ovarian) was 12 µM, the TGI (SK-OV-3 ovarian) was over 100 µM and the GI50 (TK-10 renal) was 16.6 µM. For the same molecule, the TGI (TK-10 renal) was over 100 µM, the GI50 (UACC-62 melanoma) was 3.55 µM and the TGI (UACC-62 melanoma) was 75.8 µM. It also gave a GI50 (UACC-257 melanoma) of 5.76 µM, a TGI (UACC-257 melanoma) of 33.6 µM and a GI50 (HOP-62 NSCLC) of 4.95 µM. The TGI (HOP-62 NSCLC) was over 100 µM, the GI50 (A549 NSCLC) was 4.29 µM and the TGI (A549 NSCLC) was over 100 µM. It also gave a GI50 (NCI-H522 lung) of 1.57 µM, a TGI (NCI-H522 lung) of 41.7 µM and a GI50 (MCF7 breast) of 3.79 µM. For the same molecule, the TGI (MCF7 breast) was over 100 µM, the GI50 (HCT-15 colon) was 3.62 µM and the TGI (HCT-15 colon) was over 100 µM. For the same molecule, the GI50 (NCI-H226 lung) was 30.8 µM, the TGI (NCI-H226 lung) was over 100 µM and the GI50 (MOLT-4 leukemia) was 4.45 µM. The TGI (MOLT-4 leukemia) was over 100 µM, the GI50 (KM12 colon) was 0.834 µM and the TGI (KM12 colon) was 3.75 µM. For the same molecule, the GI50 (NCI-H23 lung) was 5.4 µM, the TGI (NCI-H23 lung) was 87 µM and the GI50 (T-47D breast) was 4.86 µM. The TGI (T-47D breast) was over 100 µM, the GI50 (786-0 renal) was 7 µM and the TGI (786-0 renal) was 72.5 µM. The GI50 (RPMI-8226 leukemia) was 2.99 µM, the TGI (RPMI-8226 leukemia) was 9.96 µM and the GI50 (SNB-19 CNS) was 4.12 µM. It also gave a TGI (SNB-19 CNS) of over 100 µM, a GI50 (MALME-3M melanoma) of 2.12 µM and a TGI (MALME-3M melanoma) of over 100 µM. For the same molecule, the GI50 (SF-295 CNS) was 1 µM, the TGI (SF-295 CNS) was 11.1 µM and the GI50 (U251 CNS) was 3.68 µM. For the same molecule, the TGI (U251 CNS) was over 100 µM, the GI50 (HT29 colon) was 2.1 µM and the TGI (HT29 colon) was over 100 µM. It also gave a GI50 (SK-MEL-2 melanoma) of 2.98 µM, a TGI (SK-MEL-2 melanoma) of 9.32 µM and a GI50 (SK-MEL-5 melanoma) of 2.95 µM. For the same molecule, the TGI (SK-MEL-5 melanoma) was 14.6 µM, the GI50 (OVCAR-3 ovarian) was 3.15 µM and the TGI (OVCAR-3 ovarian) was over 100 µM. For the same molecule, the GI50 (K-562 leukemia) was 0.488 µM, the TGI (K-562 leukemia) was over 100 µM and the GI50 (CCRF-CEM leukemia) was 3.97 µM. For the same molecule, the TGI (CCRF-CEM leukemia) was over 100 µM.

Source: PubChem BioAssay (NCI)
